Assay results taken from paper PMC12040169 (PLOS Biology, 2025).

Test: in vitro
Details: human, hela cells, % viability

Row | SMILES | viability at 28.5 h, 10 µM
1 | Cn1nccc1CN1CCOC(c2nc(C(C)(C)C)cs2)C1 (stereo not shown) [CBK304690] | 93.7%
2 | CCN(CC)CCSc1nc(O)c(Cc2ccccc2)c(=O)[nH]1 [CBK072486] | 88.9%
3 | CC(C)c1ccc(NC(=O)CN2CCN(c3ccc(C(F)(F)F)cn3)CC2)cc1 [CBK086000] | 81.9%
4 | CS(=O)(=O)c1ccc(-c2cnc(N)c(NC3CCC(O)CC3)n2)cc1 (stereo not shown) [CBK063865] | 110%
5 | CCOC(=O)c1cnc2c(Cl)cc(Cl)cc2c1NCCN1CCOCC1 [CBK307278] | 83.5%
6 | COc1ccc(CC(=O)Nc2ccc(S(N)(=O)=O)cc2)cc1OC [CBK263429] | 92%
7 | OCc1nc(-c2cccnc2)co1 [CBK018811] | 106%
8 | COc1ccc(C2CCN(CC(=O)NCc3ccco3)CC2)cc1 [CBK283562] | 103%
9 | O=C(CSc1ncnc2ccccc12)Nc1nc2ccccc2s1 [CBK287510] | 85.5%
10 | CC(=O)N1CCCN(Cc2c(C(C)C)[nH]c3ncccc23)CC1 [CBK285333] | 103%
11 | COc1cccc(CCC(=O)Nc2cnc(-c3cccc(C(F)(F)F)c3)c(-c3cccnc3)n2)c1 [CBK036835] | 90%
12 | CC(C)(C)C1=CC2=NC3(CCOCC3)[C@@H]3C[C@@H](O)[C@@H](O)[C@@H]3N2O1 [CBK303244] | 90.1%
13 | Cc1noc(CN2CCN(c3ccc4nnc(C(F)(F)F)n4n3)CC2)n1 [CBK305566] | 93.3%
14 | Cc1ccc(CN2CC[C@H]3NC(=O)c4ccccc4OCC/C=C/C[C@H]3C2)cn1 [CBK292056] | 98.6%
15 | Cc1cc(C)cc(CNC(=O)NCCc2cccs2)c1 [CBK043459] | 103%
16 | CS(=O)(=O)N1CCN(Cc2cc(Br)ccc2O)CC1 [CBK263620G] | 93.9%
17 | Cc1cn(CC(=O)N2CCC3(CCN(Cc4ccccc4)C3)C2)c(=O)[nH]c1=O (stereo not shown) [CBK136840] | 91.6%
18 | O=C(O)CCCN1C(=O)/C(=C\c2ccccn2)SC1=S [CBK264552] | 92.4%
19 | O=C(O)CCC(=O)Nc1ccc(N2CCN(CCO)CC2)cc1 [CBK078486] | 94.5%
20 | CCOc1ccccc1CNCc1ccccn1 [CBK268041C] | 103%
21 | CN(C)c1nc(NCc2ccccc2)nc(SCC(=O)Nc2ccccc2)n1 [CBK268810] | 88.9%
22 | COCCNCc1ccc(OCc2ccccc2)cc1 [CBK270133C] | 91.1%

Row | SMILES | viability at 28.5 h, 10 µM
23 | Cc1cc(I)cnc1NC(=O)CSc1ccc(Cl)cc1 [CBK266438] | 94.3%
24 | O=C(O)c1ccc(CNCCc2ccccc2)cc1 [CBK287215] | 101%
25 | Cc1nc2nc(N)nn2c(C)c1CCC(=O)NCCc1ccccc1 [CBK304989] | 89.5%
26 | CNc1nc(N)nc(OCC(F)(F)F)n1 [CBK028082] | 89.4%
27 | O=C(Nc1ccc(Cc2ccncc2)cc1)c1cc([N+](=O)[O-])n[nH]1 [CBK269157] | 99.4%
28 | CCCC/C=C/c1cnc2[nH]c(=O)n([C@H](C)c3ccccc3)c2n1 [CBK064182] | 99.7%
29 | CCOC(=O)C(C)N1C(=O)S/C(=C/c2cc(Cl)c(OCC(=O)O)c(Br)c2)C1=O (stereo not shown) [CBK265163] | 99.9%
30 | Cc1cc(C)nc(N2CCC(CC(=O)Nc3ccccc3CN3CCCC3)CC2)n1 [CBK286072] | 104%
31 | CN(C(=O)c1cc[nH]n1)C1CCN(c2ncnc3ccccc23)CC1 [CBK305916] | 79%
32 | CC(O)c1cccc(NC(=O)CCC(=O)O)c1 (stereo not shown) [CBK264691] | 94.1%
33 | O=c1[nH]c(CSc2nnc(CCCOc3ccc(Cl)cc3Cl)o2)nc2ccccc12 [CBK268861] | 97.2%
34 | COc1ccccc1Cn1nc2nnc(-c3ccccc3)c(-c3ccccc3)n2c1=O [CBK286185] | 88.6%
35 | CCOc1cccc(OCC(=O)N2CCC(c3cc(C(=O)NC)c4ccccc4n3)C2)c1 (stereo not shown) [CBK285896] | 81.5%
36 | FC(F)(F)c1ccc(-c2c[nH]c([C@@H]3COCCN3Cc3csnn3)n2)cc1 [CBK289318] | 92.2%
37 | COc1ccc(OCC(=O)Nc2ccccc2N2CCN(S(C)(=O)=O)CC2)cc1 [CBK269177] | 89.9%
38 | COCC1(C)NC(=O)N(Cc2nn(-c3ccccc3)c3c2CCC3)C1=O (stereo not shown) [CBK306483] | 88.8%
39 | O=C1c2ccc(Oc3ccc4c(c3)C(=O)N(c3ccncc3)C4=O)cc2C(=O)N1c1ccncc1 [CBK261399] | 96.5%
40 | CC1(NC(=O)Cn2c(C(F)(F)F)nc3ccccc32)CCC1 [CBK281606] | 82.2%
41 | Cc1cc(C[C@@H]2CCC[C@H]2NCc2ccncc2)on1 [CBK284934] | 98.6%
42 | O=C(CN1CCCC1)Nc1sc2c(c1C(=O)Nc1ccccc1)CCCC2 [CBK268800] | 103%
43 | CCCn1cc(NC(=O)C2(c3ccccc3)CCC2)ccc1=O [CBK306237] | 95.4%
44 | CC(Nc1ncnc2c1cnn2C)c1ccccc1 (stereo not shown) [CBK288093] | 106%

Row | SMILES | viability at 28.5 h, 10 µM
45 | COc1cc(=O)n(C)c(C)n1 [CBK007924] | 91%
46 | C/C(=N/Nc1nc[nH]n1)c1ccc(Cl)c(Cl)c1 [CBK028722] | 80%
47 | CSc1nc(NC(=O)c2cccs2)cc(N2CCNCC2)n1 [CBK050315T] | 89.7%
48 | CCCOc1ccc(C2(CCCCN3CCCC3)C(=O)Oc3ccc(C(C)(C)C)cc32)cc1 (stereo not shown) [CBK017655C] | 99.1%
49 | CCOc1ccc(-c2ccnc(C)n2)cc1C(=O)O [CBK306505] | 104%
50 | CS(=O)(=O)c1ccc(-c2ccc(C(=O)N3CCN(C(=O)OCc4ccccc4)CC3)cn2)cc1 [CBK160189] | 107%
51 | COCCN(C(=O)c1nc2cccnc2s1)C1CCS(=O)(=O)C1 (stereo not shown) [CBK304091] | 97%
52 | CN(C)CCSc1nc2cc(Cl)ccc2o1 [CBK266337C] | 96.6%
53 | CC(NC(=O)CSc1nnc(-c2ccc(Cl)cc2)n1-c1ccccc1)c1ccccc1 (stereo not shown) [CBK264993] | 87%
54 | COc1ccc(NC(=O)c2ccc(-c3ccc(Nc4ccc5c(c4)OCCO5)nc3)cc2)cc1 [CBK036815] | 88.7%
55 | O=C(COC(=O)c1cc(-c2ccc(Cl)cc2)nc2ccccc12)c1cccc([N+](=O)[O-])c1 [CBK293923] | 83%
56 | CC(=O)NCCC1CCN(c2nc(C(C)(C)C)nc3c2cnn3C)CC1 [CBK307364] | 96.7%
57 | Cc1ccc(CN2C[C@@H]3CC[C@@](O)(c4ncccc4C)[C@@H]3C2)o1 [CBK285361] | 82.6%
58 | COc1ccccc1-c1cc2nc(C)cc(N3CCOCC3)n2n1 [CBK304532] | 88.7%
59 | CC(=O)Nc1ccc(S(=O)(=O)Nc2ccccc2C(=O)O)cc1 [CBK042361] | 107%
60 | O=C(c1ccc(C#CC2(O)CCCCC2)cc1)N1CCC(C(O)(c2ccccc2)c2ccccc2)CC1 [CBK033758] | 84.7%
61 | CCOc1ccc(S(=O)(=O)N2CCC(C(=O)N3CCOCC3)CC2)cc1Cl [CBK270288] | 93.8%
62 | Cc1ccc(OCc2occc2C(=O)N2CCCCC(N)C2)cc1 (stereo not shown) [CBK306840] | 107%
63 | CN(c1ncc(-c2cc3ccccc3o2)cc1C(=O)Nc1ccc2c(c1)OCO2)S(C)(=O)=O [CBK106464] | 101%
64 | Cc1ccc(CCC(=O)NNc2ccccc2)o1 [CBK260924] | 90.5%
